# Experimental data as given in paper PMC10480161, “Identification of potent and selective N-myristoyltransferase inhibitors of Plasmodium vivax liver stage hypnozoites and schizonts” (Nature Communications, 2023).
# Where “and” joins values, the source holds several entries; their conditions need not be identical. Equal values may be shown once.
# Experiments:
# HsNMT1 = biological target: T1, HsNMT1 (Homo sapiens, UniProt P30419); test: NMT activity assay (CPM detection of free CoA), HsNMT
# T1 sequence (P30419 1-496): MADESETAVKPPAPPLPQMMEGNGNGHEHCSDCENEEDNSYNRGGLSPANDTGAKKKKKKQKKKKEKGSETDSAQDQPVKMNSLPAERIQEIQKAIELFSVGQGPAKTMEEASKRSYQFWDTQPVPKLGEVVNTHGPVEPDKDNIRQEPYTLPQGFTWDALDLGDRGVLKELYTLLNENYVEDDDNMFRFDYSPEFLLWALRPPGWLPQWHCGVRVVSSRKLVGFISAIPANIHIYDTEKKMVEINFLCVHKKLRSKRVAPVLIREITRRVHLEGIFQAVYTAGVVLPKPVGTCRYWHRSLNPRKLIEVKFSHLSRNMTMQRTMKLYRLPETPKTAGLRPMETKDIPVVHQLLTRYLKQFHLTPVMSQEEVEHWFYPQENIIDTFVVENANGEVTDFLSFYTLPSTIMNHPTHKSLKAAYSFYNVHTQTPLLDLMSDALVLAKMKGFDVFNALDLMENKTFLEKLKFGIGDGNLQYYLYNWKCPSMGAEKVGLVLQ
# P. vivax schizonts = test: P. vivax liver stage assay, schizonts; format: cell-based, Plasmodium vivax; conditions: for Number of liverstage Schizonts per well: 20 µM, 8 dpi; for IC50: Plasmodium vivax, Hepatocyte, 120 h, primary human hepatocytes, treatment day 5 to 8 post-infection, isolates 2 and 3
# Method: We next evaluated the candidate compounds against liver-stage P. vivax (Fig. 5). P. vivax sporozoites were obtained from three independent patient isolates and cultured in primary human hepatocytes from a single donor lot using a 384-well microculture system as described previously. Cells were infected and treated with NMTis at 20 µM beginning day 5 post-infection until day 8 when the infection rates were quantified by fluorescent microscopy.
# (§1) Accordingly, we applied dose–response curves of all the tested NMTs on parasite isolates 2 and 3 over concentrations up to 20 µM (Fig. 5c, d, Source Data file). We observed similar kinetics for all inhibitors, with a gradual decrease in parasite load upon increasing the drug concentration. […] Nuclei were counted in each well using DAPI staining as a measure of toxicity (Supplementary Fig. 86, Supplementary Source data). We used the phosphatidylinositol 4-kinase inhibitor (PI4Ki), MMV390048, as a positive control for eliminating schizonts[37],[38].
# (§2) Plasmodium vivax liver stage assays were performed as described previously. Cryopreserved primary human hepatocytes (Cat No. F00995-P) and hepatocyte culture medium (HCM) (InVitroGroTM CP Medium) were obtained from Bioreclamation IVT, Inc., (Baltimore, MD, USA). Briefly, we seeded 384-well plates with primary hepatocytes from a single donor lot at a density of 25,000 cells per well. We then infected the hepatocytes with 14,000 freshly hand-dissected sporozoites per well. Cells were exposed to the compounds at indicated concentrations from day 5 post-infection. We used Pi4K inhibitor MMV390048, at 20 µM, as a positive control to eliminate P. vivax liver schizonts. We then proceeded to feed cultures every day, replacing the compounds until day 8 post-infection. Cells were fixed with 4% PFA, permeabilized with 1% Triton X-100, blocked with 2% BSA, and stained with DAPI and PvUIS4 antibodies to detect schizonts and hypnozoites forms by confocal microscopy. For antibody dilutions, PvUIS4 (kind gift from Dr. Noah Sather, Seattle Children’s Research Institute) was diluted 1:250 and the secondary antibody was anti-mouse AlexaFluor-594 (Cat # A-11005; RRID: AB_2534073) diluted 1:1000. DAPI was diluted 1:2000. The images were processed, analyzed and outlier cells were removed using IMARIS (Bitplane Inc.) image analysis software.
# [1] = test system: primary human hepatocytes; test: Nuclear counts (DAPI) in P. vivax-infected primary hepatocytes as measure of toxicity; format: cell-based; conditions: two technical replicates
# Method: as §1, with “file).” for “file). We observed similar kinetics for all inhibitors, with a gradual decrease in parasite load upon increasing the drug concentration.”
# as §2, with “For antibody dilutions, PvUIS4 (kind gift from Dr. Noah Sather, Seattle Children’s Research Institute) was diluted 1:250 and the secondary antibody was anti-mouse AlexaFluor-594 (Cat # A-11005; RRID: AB_2534073) diluted 1:1000.” left out
# Supplementary Fig. 86. […] Nuclear […]
# counts, normalized to DMSO controls, for NMT inhibitors across a dose response. Counts were ob-tained using DAPI staining from the P. vivax-infected wells quantified in Fig. 5d. Error bars represent the standard deviation of two technical replicates.
# (1 picture or pasted object on this page, not shown here)
# PvNMT = PvNMT (Plasmodium vivax, UniProt A5K1A2); test: NMT activity assay (CPM detection of free CoA), PvNMT; conditions: for IC50: PvNMT IC50, mean of two or more determinations; for SI: enzyme selectivity, HsNMT IC50/PvNMT IC50
# P. vivax hypnozoites = test: P. vivax liver stage assay, hypnozoites; format: cell-based, Plasmodium vivax; conditions: for Hypnozoites per well: Isolate 2, replicate wells (Figure 6d); for Number of liverstage hypnozoites per well: 20 µM, 8 dpi; for IC50: Plasmodium vivax, Hepatocyte, 120 h, primary human hepatocytes, treatment day 5 to 8 post-infection, isolate 2
# Method: Finally, we evaluated the NMT-binding compounds against non-developing P. vivax hypnozoites. […] (Fig. 6A). […] We, therefore, evaluated the impact of all tested compounds on P. vivax hypnozoites using these two isolates.
# as §2
# [2] = isolate 1, technical replicates (Fig. 5b)
# [3] = isolate 2, technical replicates (Fig. 5b)
# [4] = isolate 3, technical replicates (Fig. 5b)
# [5] = isolate 1, technical replicates (Fig. 6C)
# [6] = isolate 2, technical replicates (Fig. 6C)
# [7] = isolate 3, technical replicates (Fig. 6C)
# Chain of PvNMT (A5K1A2 entry or part of it): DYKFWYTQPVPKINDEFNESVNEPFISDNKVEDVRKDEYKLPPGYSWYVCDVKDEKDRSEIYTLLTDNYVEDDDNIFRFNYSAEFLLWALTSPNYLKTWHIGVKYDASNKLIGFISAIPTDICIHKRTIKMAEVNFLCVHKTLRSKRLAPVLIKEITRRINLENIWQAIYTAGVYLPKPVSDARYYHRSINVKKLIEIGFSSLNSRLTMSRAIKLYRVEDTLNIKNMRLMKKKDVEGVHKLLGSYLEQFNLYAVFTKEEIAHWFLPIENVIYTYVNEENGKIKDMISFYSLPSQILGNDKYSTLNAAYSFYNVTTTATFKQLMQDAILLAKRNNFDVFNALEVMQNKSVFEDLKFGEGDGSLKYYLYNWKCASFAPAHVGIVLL
SMILES,IC50 (HsNMT1) [µM],Number of liverstage Schizonts per well (P. vivax schizonts; [2]),Number of liverstage Schizonts per well (P. vivax schizonts; [3]),Number of liverstage Schizonts per well (P. vivax schizonts; [4]),"Schizonts per well (P. vivax schizonts; Isolate 2, 1.25 uM)","Schizonts per well (P. vivax schizonts; Isolate 2, 2.5 uM)","Schizonts per well (P. vivax schizonts; Isolate 2, 5 uM)","Schizonts per well (P. vivax schizonts; Isolate 3, 1.25 uM)","Schizonts per well (P. vivax schizonts; Isolate 3, 2.5 uM)","Schizonts per well (P. vivax schizonts; Isolate 3, 5 uM)","Schizonts per well (P. vivax schizonts; Isolate 3, 10 uM)","Schizonts per well (P. vivax schizonts; Isolate 3, 20 uM (Fig. 5c-d))",IC50 (P. vivax schizonts) [µM],"schizonts (fold change to DMSO) mean diff (P. vivax schizonts; isolate 1, 20 µM)","schizonts (fold change to DMSO) mean diff (P. vivax schizonts; isolate 2, 20 µM)","schizonts (fold change to DMSO) mean diff (P. vivax schizonts; isolate 3, 20 µM)",Nucleus counts per well ([1]; 1 uM),Nucleus counts per well ([1]; 2.5uM),Nucleus counts per well ([1]; 5 uM),Nucleus counts per well ([1]; 10uM),further results
Cc1nn(C)c(C)c1CCOc1ccccc1-c1cccc(N2CCNCC2)c1 [Compound 12d],7.44,1 per well (2×) and 0 per well,2 per well and 0 per well and 1 per well,2 per well and 1 per well,12 per well and 13 per well,11 per well and 9 per well and 15 per well,9 per well and 7 per well and 11 per well,12 per well,6 per well and 11 per well,7 per well and 6 per well,5 per well and 4 per well,2 per well and 1 per well,3.3 to 4.3,0.967,0.9434,0.8977,15900 per well and 16970 per well,14920 per well and 16520 per well,15990 per well and 14720 per well,15680 per well and 15000 per well,"Schizonts per well (P. vivax schizonts; Isolate 2, 10 uM): 8 per well and 5 per well; Nucleus counts per well ([1]; 20uM, P. vivax-infected wells): 12690 per well and 13950 per well; IC50 (PvNMT): 48.5 nM; SI (PvNMT): 153.4; Hypnozoites per well (P. vivax hypnozoites; 1.25 uM): 11 and 8 and 9; Hypnozoites per well (P. vivax hypnozoites; 2.5 uM): 7 (2×) and 8; Hypnozoites per well (P. vivax hypnozoites; 5 uM): 5 (2×) and 7; Hypnozoites per well (P. vivax hypnozoites; 10 uM): 3 (2×) and 2; Number of liverstage hypnozoites per well (P. vivax hypnozoites; [5]): 1 per well (2×) and 0 per well; Number of liverstage hypnozoites per well (P. vivax hypnozoites; [6]): 3 per well and 0 per well and 1 per well; Number of liverstage hypnozoites per well (P. vivax hypnozoites; [7]): 0 per well; Hypnozoites per well (P. vivax hypnozoites; 20 uM): 3 and 0 and 1; IC50 (P. vivax hypnozoites): 4700 nM; hypnozoites (fold change to DMSO) mean diff (P. vivax hypnozoites; isolate 1, 20 µM): 0.939; hypnozoites (fold change to DMSO) mean diff (P. vivax hypnozoites; isolate 2, 20 µM): 0.862"
Cc1nn(C)c(C)c1CCOc1cc(F)ccc1-c1cccc(N2CCNCC2)c1 [Compound 12f],0.699,0 per well,1 per well and 0 per well (2×),3 per well and 2 per well,12 per well and 13 per well and 17 per well,10 per well and 9 per well and 15 per well,8 per well and 9 per well and 11 per well,11 per well,10 per well and 12 per well,7 per well and 5 per well,3 per well and 5 per well,3 per well and 2 per well,3.3 to 4.3,1.000,0.9811,0.8295,15280 per well and 15770 per well,15290 per well and 15210 per well,15170 per well and 14310 per well,14300 per well and 15260 per well,"Nucleus counts per well ([1]; 20uM, P. vivax-infected wells): 13150 per well and 16410 per well; IC50 (PvNMT): 15.9 nM; SI (PvNMT): 43.9; Hypnozoites per well (P. vivax hypnozoites; 1.25 uM): 4 (2×) and 2; Hypnozoites per well (P. vivax hypnozoites; 2.5 uM): 3; Hypnozoites per well (P. vivax hypnozoites; 5 uM): 2 and 3 (2×); Hypnozoites per well (P. vivax hypnozoites; 10 uM): 1; Number of liverstage hypnozoites per well (P. vivax hypnozoites; [5]): 1 per well (2×) and 0 per well; Number of liverstage hypnozoites per well (P. vivax hypnozoites; [6]): 1 per well (2×) and 0 per well; Number of liverstage hypnozoites per well (P. vivax hypnozoites; [7]): 0 per well; Hypnozoites per well (P. vivax hypnozoites; 20 uM): 1 (2×) and 0; IC50 (P. vivax hypnozoites): 1500 nM; hypnozoites (fold change to DMSO) mean diff (P. vivax hypnozoites; isolate 1, 20 µM): 0.939; hypnozoites (fold change to DMSO) mean diff (P. vivax hypnozoites; isolate 2, 20 µM): 0.931"
c1cncc(CCOc2cccnc2-c2cccc(N3CCNCC3)c2)c1 [Compound 12g],15.9,0 per well,3 per well and 4 per well and 6 per well,3 per well,10 per well and 11 per well and 19 per well,11 per well and 12 per well and 16 per well,6 per well and 8 per well and 11 per well,13 per well and 11 per well,7 per well and 6 per well,8 per well and 4 per well,5 per well,3 per well,2.2 to 3.1,1.000,0.7547,0.7955,14940 per well and 14730 per well,14740 per well and 14990 per well,14960 per well and 13600 per well,13740 per well and 14770 per well,"Schizonts per well (P. vivax schizonts; Isolate 2, 20 uM (Fig. 5c-d)): 3 per well and 4 per well and 6 per well; Nucleus counts per well ([1]; 20uM, P. vivax-infected wells): 11770 per well and 13000 per well; IC50 (PvNMT): 104 nM; SI (PvNMT): 152.8; Hypnozoites per well (P. vivax hypnozoites; 1.25 uM): 5 and 0 and 3; Hypnozoites per well (P. vivax hypnozoites; 2.5 uM): 3 and 4 and 0; Hypnozoites per well (P. vivax hypnozoites; 5 uM): 1 and 2 and 0; Hypnozoites per well (P. vivax hypnozoites; 10 uM): 1 and 0 (2×); Number of liverstage hypnozoites per well (P. vivax hypnozoites; [5]): 1 per well and 0 per well (2×); Number of liverstage hypnozoites per well (P. vivax hypnozoites; [6]): 1 per well and 0 per well (2×); Number of liverstage hypnozoites per well (P. vivax hypnozoites; [7]): 0 per well; Hypnozoites per well (P. vivax hypnozoites; 20 uM): 1 and 0 (2×); IC50 (P. vivax hypnozoites): 1200 nM; hypnozoites (fold change to DMSO) mean diff (P. vivax hypnozoites; isolate 1, 20 µM): 0.785; hypnozoites (fold change to DMSO) mean diff (P. vivax hypnozoites; isolate 2, 20 µM): 0.966"
